Experimental data from paper PMC4513294, “L-Asparaginase from Streptomyces griseus NIOT-VKMA29: optimization of process variables using factorial designs and molecular characterization of L-asparaginase gene” (Scientific Reports, 2015).

Biological target: T1, L-asparaginase (ansA) (Streptomyces griseus, UniProt Q54237)
T1 construct: gene orf4; full-length ORF (987 bp, 328 residues, 33721 Da) in pQE30, expressed in E. coli M15(pREP4); unpurified expressed cells; 34 kDa band on SDS-PAGE
T1 sequence (Q54237 1-328): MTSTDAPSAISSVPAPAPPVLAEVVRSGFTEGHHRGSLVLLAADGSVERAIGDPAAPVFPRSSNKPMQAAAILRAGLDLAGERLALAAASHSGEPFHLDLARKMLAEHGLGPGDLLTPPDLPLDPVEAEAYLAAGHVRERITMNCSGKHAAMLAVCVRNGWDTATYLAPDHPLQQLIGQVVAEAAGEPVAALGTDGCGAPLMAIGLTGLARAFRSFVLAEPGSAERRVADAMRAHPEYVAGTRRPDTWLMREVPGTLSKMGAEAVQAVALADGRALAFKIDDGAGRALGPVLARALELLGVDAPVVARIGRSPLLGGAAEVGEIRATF
Experiment: ammonia release, Nesslerization
Assay type: cell-based
Details: recombinant E. coli M15 expressed cells compared with control cells; host background activity present

Compound: NC(=O)C[C@H](N)C(=O)O [L-asparagine]
- ammonia release, Nesslerization: The expression of asparaginase biosynthetic gene was confirmed by Nesslerization assay
